According to patent US20230295164A1, “COMPOUNDS HAVING ANTIBACTERIAL ACTIVITY” (The Trustees of Princeton University, priority 2020, published 2023):
Values after ≈ are worked out from the molar mass of the structure shown.

Key:
Test in all cases: MIC testing, broth microdilution in CAMHB
Type in all cases: cell-based
[1] = system: Staphylococcus aureus, NRS384; conditions: 18-20 hr, lowest concentration that completely inhibits visible growth; for MIC: Staphylococcus aureus, NRS384, 37° C., read-out: Compound MICs, Staphylococcus aureus, NRS384; for Compound MICs, Staphylococcus aureus, NRS384: 37° C.
Method: (§1) Compounds 1-71 were subsequently tested to determine MICs of the compounds relative to the following five species/strains of bacteria: Staphylococcus aureus, NRS384; Enterococcus faecalis, ATCC 51575; Salmonella typhimurium, CMCC 50115; Escherichia coli, ATCC BAA-198; and Acinetobacter baumannii, ATCC 17978. MIC testing of compounds was conducted according to the following protocol.
(§2) For each strain to be tested, made fresh streaks onto CAMHA from −80° C. glycerol stocks.
(§3) • CAMHB: Dissolved 22 g of the powder per 1 L of purified water. Mixed well. Autoclaved at 121° C. for 10 minutes. Stored at room temperature (RT) for no more than 1 week. • Saline: Dissolved 9 g of the powder per 1 L of purified water. Mixed well. Autoclaved at 121° C. for 30 minutes. Stored at room temperature (RT) for no more than 1 week.
(§4) Prepared the stock solutions of the tested compounds.
(§5) For compounds: • a) Dispensed 20 ul compound to the wells in column 1, and 20 ul DMSO to the wells in column 2 to 12; • b) Diluted the compounds by transferring 10 ul compounds from column 1 to 20 ul DMSO in column 2; mix with pipette. • c) Repeated until column 11 to get 3×serial dilutions. Column 12 was the DMSO control.
(§6) A multichannel pipette was used to deliver 1 μl of the diluted compound into each well of the corresponding daughter plate.
(§7) Scraped 4-8 single colonies from an agar plate into 5 ml saline in a 14 ml Falcon conical tube. Vortexed the tube to suspend the bacteria. Adjusted the turbidity to ˜0.2 (corresponding to 0.5 McFarland) with an Ultrospec 10 Cell density meter.
(§8) The strain suspension was diluted 200-fold in CAMHB medium and dispense into a sterile reservoir. A multichannel pipette was then used to deliver 99 μl of the diluted inocula into each well of the corresponding daughter plate.
(§9) Incubate the daughter plates at 37° C., 85% humidity for 18-20 hr.
(§10) A magnifying mirror device was used for ease of scoring the presence or absence of growth in the wells. 96-well micro-plates were photographed.

[2] = system: Escherichia coli, ATCC BAA-198; conditions: 18-20 hr, lowest concentration that completely inhibits visible growth; for MIC: Escherichia coli, ATCCBAA198, 37° C., read-out: Compound MICs, Escherichia coli, ATCC BAA-198; for Compound MICs, Escherichia coli, ATCC BAA-198: 37° C.
Method: as §1, §2, §3, §4, §5, §6, §7, §8, §9, §10

[3] = system: Acinetobacter baumannii, ATCC 17978; conditions: 18-20 hr, lowest concentration that completely inhibits visible growth; for MIC: Acinetobacter baumannii, ATCC17978, 37° C., read-out: Compound MICs, Acinetobacter baumannii, ATCC 17978; for Compound MICs, Acinetobacter baumannii, ATCC 17978: 37° C.
Method: as §1, §2, §3, §4, §5, §6, §7, §8, §9, §10

[4] = system: Salmonella typhimurium, CMCC 50115; conditions: 37° C., 18-20 hr, lowest concentration that completely inhibits visible growth; for MIC: Salmonella enterica, read-out: Compound MICs, Salmonella typhimurium, CMCC 50115
Method: as §1, §2, §3, §4, §5, §6, §7, §8, §9, §10

[5] = system: Enterococcus faecalis, ATCC 51575; conditions: 18-20 hr, lowest concentration that completely inhibits visible growth; for MIC: Enterococcus faecalis, ATCC51575, 37° C., read-out: Compound MICs, Enterococcus faecalis, ATCC 51575; for Compound MICs, Enterococcus faecalis, ATCC 51575: 37° C.
Method: as §1, §2, §3, §4, §5, §6, §7, §8, §9, §10

SMILES | MIC [1] [µg/mL] | MIC [2] [µg/mL] | MIC [3] [µg/mL] | MIC [4] [µg/mL] | MIC [5] [µg/mL] | Compound MICs, Staphylococcus aureus, NRS384 [1] [µg/mL] | Compound MICs, Escherichia coli, ATCC BAA-198 [2] [µg/mL] | Compound MICs, Acinetobacter baumannii, ATCC 17978 [3] [µg/mL] | Compound MICs, Salmonella typhimurium, CMCC 50115 [4] [µg/mL] | Compound MICs, Enterococcus faecalis, ATCC 51575 [5] [µg/mL]
C#Cc1ccc(Cn2ccc3c4c(N)nc(N)nc4ccc32)cc1 [Compound 1] | 0.088 (≈ 0.281 µM) | 2.37 (≈ 7.56 µM) | 2.37 (≈ 7.56 µM) | 0.088 (≈ 0.281 µM) | 0.01 (≈ 0.0319 µM) | – | – | – | – | –
Nc1nc(NCCO)c2c(ccc3c2ccn3Cc2ccc(-c3ccccc3)cc2)n1 [Compound 2] | 2.37 (≈ 5.79 µM) | 64 (≈ 156 µM) | 7.11 (≈ 17.4 µM) | > 64 | 2.37 (≈ 5.79 µM) | – | – | – | – | –
Nc1nc(N)c2c(ccc3c2ccn3CC#Cc2ccccc2)n1 [Compound 3] | 0.26 (≈ 0.83 µM) | 7.11 (≈ 22.7 µM) | 7.11 (≈ 22.7 µM) | 0.79 (≈ 2.52 µM) | 0.03 (≈ 0.0957 µM) | – | – | – | – | –
Nc1nc(N)c2c(ccc3c2ccn3C/C=C/c2ccccc2)n1 [Compound 4] | 0.03 (≈ 0.0951 µM) | 7.11 (≈ 22.5 µM) | 7.11 (≈ 22.5 µM) | 0.79 (≈ 2.5 µM) | 0.03 (≈ 0.0951 µM) | – | – | – | – | –
Nc1nc(N)c2c(ccc3c2ccn3Cc2cccc(Oc3ccccc3)c2)n1 [Compound 5] | 0.26 (≈ 0.682 µM) | 7.11 (≈ 18.6 µM) | 7.11 (≈ 18.6 µM) | 0.79 (≈ 2.07 µM) | 0.03 (≈ 0.0786 µM) | – | – | – | – | –
CC(C)c1ccc(Cn2ccc3c4c(N)nc(N)nc4ccc32)cc1 [Compound 8] | 0.088 (≈ 0.266 µM) | 2.37 (≈ 7.15 µM) | 0.79 (≈ 2.38 µM) | 0.26 (≈ 0.784 µM) | 0.03 (≈ 0.0905 µM) | – | – | – | – | –
C#Cc1ccc(Cn2ccc3c4c(N)nc(NC5CC5)nc4ccc32)cc1 [Compound 9] | 0.79 (≈ 2.24 µM) | 21.3 (≈ 60.3 µM) | 21.3 (≈ 60.3 µM) | 2.37 (≈ 6.71 µM) | 0.26 (≈ 0.736 µM) | – | – | – | – | –
Nc1nc(N)c2c(ccc3c2ccn3CC2CCCC2)n1 [Compound 11] | 0.088 (≈ 0.313 µM) | 21.3 (≈ 75.7 µM) | 7.11 (≈ 25.3 µM) | 0.79 (≈ 2.81 µM) | 0.03 (≈ 0.107 µM) | – | – | – | – | –
Nc1nc(N)c2c(ccc3c2ccn3Cc2cccc(F)c2)n1 [Compound 12] | 0.26 (≈ 0.846 µM) | 7.11 (≈ 23.1 µM) | 2.37 (≈ 7.71 µM) | 0.79 (≈ 2.57 µM) | 0.03 (≈ 0.0976 µM) | – | – | – | – | –
Nc1nc(N)c2c(ccc3c2ccn3Cc2ccc(F)c(F)c2)n1 [Compound 13] | 0.088 (≈ 0.271 µM) | 7.11 (≈ 21.9 µM) | 2.37 (≈ 7.29 µM) | 0.088 (≈ 0.271 µM) | 0.01 (≈ 0.0307 µM) | – | – | – | – | –
CC(C)C#Cc1ccc(Cn2ccc3c4c(N)nc(N)nc4ccc32)cc1 [Compound 15] | – | – | – | – | – | 0.26 | 7.11 | 21.3 | 2.37 | 0.09
CC(C)(C)OC(=O)NCC#Cc1ccc(Cn2ccc3c4c(N)nc(N)nc4ccc32)cc1 [Compound 16] | – | – | – | – | – | 0.79 | >64 | >64 | 21.3 | 0.09
CC(C)C#Cc1ccc(Cn2ccc3c4c(N)nc(NC5CC5)nc4ccc32)cc1 [Compound 17] | – | – | – | – | – | 2.37 | 21.3 | 21.3 | 7.11 | 0.79
CC#Cc1ccc(Cn2ccc3c4c(N)nc(NC5CC5)nc4ccc32)cc1 [Compound 18] | – | – | – | – | – | 2.37 | 21.3 | 21.3 | 7.11 | 0.79
Nc1nc(NC2CC2)nc2ccc3c(ccn3Cc3ccc(C#Cc4ccccc4)cc3)c12 [Compound 19] | – | – | – | – | – | 2.37 | >64 | >64 | 21.3 | 0.79
Nc1nc(NC2CC2)nc2ccc3c(ccn3Cc3ccc(C#CC4CC4)cc3)c12 [Compound 20] | – | – | – | – | – | 2.37 | >64 | 64 | 21.3 | 0.79
Nc1nc(N)c2c(ccc3c2ccn3Cc2ccc(C#Cc3ccccc3)cc2)n1 [Compound 23] | – | – | – | – | – | 2.37 | >64 | >64 | >64 | 0.26
NCC#Cc1ccc(Cn2ccc3c4c(N)nc(N)nc4ccc32)cc1 [Compound 24] | – | – | – | – | – | 0.79 | 7.11 | 64 | 0.26 | 0.26
CC#Cc1ccc(Cn2ccc3c4c(N)nc(N)nc4ccc32)cc1 [Compound 25] | – | – | – | – | – | 0.26 | 7.11 | 21.3 | 0.79 | 0.09
Nc1nc(N)c2c(ccc3c2ccn3Cc2ccc3ccccc3c2)n1 [Compound 26] | – | – | – | – | – | 0.09 | 2.37 | 2.37 | 0.26 | 0.09
CC[Si](C#Cc1ccc(CNc2nc(N)nc3ccc4c(ccn4Cc4ccc(C#C[Si](CC)(CC)CC)cc4)c23)cc1)(CC)CC [Compound 27] | – | – | – | – | – | >64 | >64 | >64 | >64 | >64
CCc1ccc(Cn2ccc3c4c(N)nc(N)nc4ccc32)cc1 [Compound 31] | – | – | – | – | – | 0.26 | 7.11 | 7.11 | 0.79 | 0.09
C=Cc1ccc(Cn2ccc3c4c(N)nc(N)nc4ccc32)cc1 [Compound 33] | – | – | – | – | – | 0.26 | 2.37 | 7.11 | 0.26 | 0.03
Nc1nc(N)c2c(ccc3c2ccn3Cc2ccc([N+](=O)[O-])cc2)n1 [Compound 34] | – | – | – | – | – | 0.26 | 7.11 | 21.3 | 0.26 | 0.09
Nc1nc(N)c2c(ccc3c2ccn3CCc2ccc(F)cc2)n1 [Compound 39] | – | – | – | – | – | 0.79 | 7.11 | 21.3 | 2.37 | 0.09
COc1ccc(-c2cc3c(ccn3Cc3ccc(F)cc3)c3c(N)nc(N)nc23)cc1 [Compound 41] | – | – | – | – | – | 2.37 | 64 | 21.3 | 0.79 | 0.09
Cc1ccc(Cn2ccc3c4c(N)nc(N)nc4ccc32)c2ccccc12 [Compound 42] | – | – | – | – | – | 0.03 | 7.11 | 7.11 | 0.79 | 0.01
